The values that follow come from US20240307326A1, “DOSAGE FORMS OF MIRDAMETINIB” (SpringWorks Therapeutics, Inc., priority 2023, published 2024).

The nature of data set [1]: Bulk and tap density, Carr's Index of drug substance lots. The data set is classed as physicochemical. The following applies: mirdametinib free base drug substance. As to the method: (§1) Mirdametinib free base (Lots #1, 2, and 3) having the properties in the table below were prepared.
Data set [2] can be described thus: Particle size of mirdametinib drug substance lots (laser diffraction particle sizing). The following applies: mirdametinib free base drug substance. The data set is classed as physicochemical.
Source text: As used herein, “D50” or “d50”, also known as the median diameter, corresponds to the value under which 50% of the particles has a lower volume diameter. “D90” or “d90” corresponds to the value under which 90% of the particles has a lower volume diameter. The particle size may be measured using wet standard laser diffraction particle sizing techniques known in the art. One example of an instrument to measure the particle size of the dry powders is the Mastersizer 3000, manufactured by Malvern Panalytical Ltd. (Malvern, UK). As particles are often non-spherical, it is difficult and complex to provide dimensional descriptions of these non-spherical particles. As used herein, “volume diameter” refers to diameter of a sphere with equal volume of the non-spherical particle.
as §1

As to `O=C(NOC[C@H](O)CO)c1ccc(F)c(F)c1Nc1ccc(I)cc1F` [Lot 1, N—((R)-2,3-dihydroxypropoxy)-3,4-difluoro-2-(2-fluoro-4-iodo-phenylamino)benzamide], in data set [1], the Bulk density is on record as 0.169 g/mL, the “Carr's Index” value turned out to be 57.1 and the Tap density is on record as 0.394 g/mL. In data set [2], this compound returned a D10 of 4.9 μm, a D50 of 20.9 μm and a D90 of 101.5 μm.
With `O=C(NOC[C@H](O)CO)c1ccc(F)c(F)c1Nc1ccc(I)cc1F` [Lot 2, N—((R)-2,3-dihydroxypropoxy)-3,4-difluoro-2-(2-fluoro-4-iodo-phenylamino)benzamide], in data set [1], the Bulk density worked out at 0.197 g/mL, the “Carr's Index” value is listed as 54.6 and the Tap density is 0.434 g/mL. In data set [2], this compound had a D10 of 7.6 μm, a D50 of 28.4 μm and a D90 of 120.7 μm.
In data set [2], `O=C(NOC[C@H](O)CO)c1ccc(F)c(F)c1Nc1ccc(I)cc1F` [Lot 3, N—((R)-2,3-dihydroxypropoxy)-3,4-difluoro-2-(2-fluoro-4-iodo-phenylamino)benzamide] showed a D10 of 17.8 μm, a D50 of 46.5 μm and a D90 of 217.1 μm.
